Literature values as cited in US7101912B2, “Carbidopa prodrugs and derivatives, and compositions and uses thereof” (XenoPort, Inc., priority 2002, dated 2006).

Legend:
[1] = rats

absorption following rectal administration [1]	conversion of the prodrug to levodopa in rat plasma (following absorption from an intestinal loop)	levels of levodopa (rat plasma following absorption from an intestinal loop)	SMILES
poor			C[C@@](Cc1ccc(O)c(O)c1)(NN)C(=O)O [carbidopa]
	slow	low	CC(C)(C)C(=O)Oc1ccc(C[C@H](N)C(=O)O)cc1O [NB-355]
